Data on 8 compounds can be found in patent US5654426A, “Ecteinascidins” (priority 1995, dated 1997).

One assay concerns M-5076 ovarian sarcoma. As to the kind of experiment: In vivo antitumor activity in mice vs. M-5076 ovarian sarcoma.
The subject of assay [1] is LX-1 human lung carcinoma xenograft. As to the kind of experiment: In vivo antitumor activity in mice vs. LX-1 human lung carcinoma xenograft.
Assay [2] concerns MX-1 human mammary carcinoma xenograft. Kind of assay: In vivo antitumor activity in mice vs. MX-1 human mammary carcinoma xenograft. A general note: A xenograft is tissue or cells of one species grown in another, often human tumour cells in immunodeficient mice.
For assay [3], the system named is variety of tumor models in mice. Kind of assay: In vivo activity against several tumor models in mice.
In the next assay the test system is B-16 melanoma. Kind of assay: In vivo antitumor activity in mice vs. B-16 melanoma.
The test system of another assay is P-388 leukemia cells. As to the kind of experiment: In vivo antitumor activity in mice vs. P-388 leukemia. The following applies: for T/C vs. P-388 / survivors, P-388: mice.
Another assay has as its system Lewis lung carcinoma. As to the kind of experiment: In vivo antitumor activity in mice vs. Lewis lung carcinoma.
Assay [4] has as its system HT-29 human colon cancer cell line. As to the kind of experiment: In vitro activity against HT-29 human colon cancer cell line. It counts as cell-based. On the procedure: (§1) Compounds 3 and 5 described herein were tested in vitro against the following cell lines; P-388 murine leukemia cell line; HT-29 human colon cancer cell line; A-549 human lung adenocarcinoma cell line; and CV-1 monkey kidney cell line (non-cancerous); and the IC50 in μg/ml was determined.

In assay [5] the test system is P-388 murine leukemia cell line. As to the kind of experiment: In vitro activity against P-388 murine leukemia cell line. It counts as cell-based. On the procedure:
as §1

The test system of assay [6] is A-549 human lung adenocarcinoma cell line. Kind of assay: In vitro activity against A-549 human lung adenocarcinoma cell line. It counts as cell-based. Here is the method:
as §1

The subject of assay [7] is CV-1 monkey kidney cell line. As to the kind of experiment: In vitro activity against CV-1 monkey kidney cell line (non-cancerous). The class given is cell-based. The following applies: CV-1 monkey kidney (non-cancerous). On the procedure: as §1
The next assay concerns L1210 leukemia cells. Kind of assay: Inhibition of L1210 leukemia cells in plate assays. The following applies: Mus musculus. It counts as cell-based. On the procedure: Et's 722 (Compound 6) and 736 (Compound 7)inhibit L1210 leukemia cells to the extent of 90% in plate assays at 2.5 and 5.0 μg/ml, respectively.
The next assay has as its system DNA. The conditions noted are these: Lown et al. 1982; Zmijewski et al. 1985; cited from earlier work.
The mark [8] stands for this setting: comparison Compound 1 vs. Compound 6.

≈ marks a conversion by molar mass, not a printed value. A value given as a limit tells only on which side of the number the result lay.

As for `COc1cc2c(cc1O)CCN[C@]21CSC2c3c(OC(C)=O)c(C)c4c(c3C(COC1=O)N1C2C2NC(Cc3cc(C)c(OC)c(O)c32)[C@@H]1O)OCO4` (stereo partly shown) [Compound 1], in the assay with M-5076 ovarian sarcoma (12.5 μg/kg), the “T/C vs. M-5076” value was 204 and the “survivors, M-5076” value is 5/10. Also, the “activity vs. M-5076 compared with Compound 6” value in the assay on M-5076 ovarian sarcoma (setting [8]) is reported as “more active”. Moreover, in assay [1] (25 μg/kg), the “T/C vs. LX-1” value is given as 0.00. Besides, the “activity vs. LX-1 compared with Compound 6” value in assay [1] (setting [8]) is on record as “more active”. Further, the “T/C vs. MX-1” value in [2] (37.5 μg/kg) is given as 0.05. The “activity vs. MX-1 compared with Compound 6” value in assay [2] (setting [8]) was “more active”. Moreover, the “in vivo activity in mice” value in assay [3] was “exceedingly potent activity in vivo”. Besides, in the assay on B-16 melanoma (12.5 μg/kg), the “T/C vs. B-16” value was 253. Further, the “activity vs. B-16 compared with Compound 6” value with B-16 melanoma (setting [8]) was “more active”. Also, in the assay with P-388 leukemia cells (12.5 μg/kg day), the “T/C vs. P-388” value is reported as 190 and the “survivors, P-388” value is on record as 1/6. For the same compound, the “T/C vs. Lewis lung” value in the assay with Lewis lung carcinoma (25 μg/kg) is recorded as 0.00. Moreover, the “activity vs. Lewis lung compared with Compound 6” value in the assay on Lewis lung carcinoma (setting [8]) is recorded as “more active”.

In the case of `COc1cc2c(cc1O)CCN[C@]21CSC2c3c(OC(C)=O)c(C)c4c(c3C(COC1=O)N1C2C2c3c(cc(C)c(OC)c3O)CC([C@@H]1O)N2C)OCO4` (stereo partly shown) [Compound 2], the “in vivo activity in mice” value in [3] is reported as “exceedingly potent activity in vivo”.

Turning to `COc1cc2c(cc1O)CCN[C@]21CSC2c3c(OC(C)=O)c(C)c4c(c3C(COC1=O)N1C2C2c3c(cc(C)c(OC)c3O)CC([C@@H]1O)N2C=O)OCO4` (stereo partly shown) [Compound 3, N^12 -Formyl Et 729], the concentration for half-maximal inhibition (IC50) (in general, the point on the concentration scale where inhibition reaches its midpoint) in assay [4] was found to be 2 ng/mL (≈ 2.58 nM); in [5] (Mus musculus, P388), 0.5 ng/mL (≈ 0.644 nM); in assay [6] (A549), 2 ng/mL (≈ 2.58 nM); in assay [7] (Primates) it was 5 ng/mL (≈ 6.44 nM).

Take `COc1c(C)cc2c(c1O)C1NC(C2)[C@H](O)N2C3COC(=O)[C@]4(CSC(c5c(OC(C)=O)c(C)c6c(c53)OCO6)C12)NCCc1c4[nH]c2ccccc12` (stereo partly shown) [Compound 6]: the “activity vs. M-5076 ovarian sarcoma” value in the assay with M-5076 ovarian sarcoma (mice) is “slightly active”. In addition, the “T/C vs. LX-1” value in assay [1] (50 μg/kg, mice) was 200. Moreover, in assay [2] (mice), the “activity vs. MX-1 human mammary carcinoma xenograft” value is “slightly active”. For the same compound, the “in vivo activity in mice” value in assay [3] is “highly active in vivo in mice”. Also, the inhibition (commonly the percentage by which the read-out fell short of the control) at 2.5 µg/mL in the assay with L1210 leukemia cells (at 2.5 μg/ml) was found to be 90%. In the assay with P-388 leukemia cells (25 μg/kg day), the “T/C vs. P-388” value was more than 265 and the “survivors, P-388” value was 2/6. The “activity vs. P-388 compared with Compound 1” value with P-388 leukemia cells (comparison Compound 6 vs. Compound 1) was “more effective than Compound 1”.

For `COc1c(C)cc2c(c1O)C1C3C4SC[C@]5(NCCc6c5[nH]c5ccccc65)C(=O)OCC(c5c6c(c(C)c(OC(C)=O)c54)OCO6)N3[C@@H](O)C(C2)N1C` (stereo partly shown) [Compound 7], the inhibition at 5 µg/mL in the assay on L1210 leukemia cells (at 5.0 μg/ml) is 90%.

With `COC1=C(C)C(=O)C2=C(C1=O)C(CO)N1C(O)C3CC4C(C1C2N1CCOC41)N3C` (stereo not shown) [naphthyridinomycin], the “reactions with DNA” value in the assay on DNA is recorded as “reversible reactions”.

In the case of `COC1=C(C)C(=O)C2=C(C1=O)C1C3CC4=C(C(=O)C(OC)=C(C)C4=O)C(CNC(=O)C(C)=O)N3C(C#N)C(C2)N1C` (stereo not shown) [saframycin A], in the assay on DNA, the “reactions with DNA” value is reported as “reversible reactions”.

As for Et 743 N^12 -Oxide [Compound 5], the “IC50 against HT-29” value in [4] came out at 2.5 ng/mL. Besides, the “IC50 against P-388” value in assay [5] was determined as 1 ng/mL. For the same compound, the “IC50 against A-549” value in [6] was determined as 2.5 ng/mL. In addition, the “IC50 against CV-1” value in assay [7] turned out to be 2.5 ng/mL.
